Measurements reported in the supplement of paper PMC11368000.

Legend:
Details in all cases: exposure time: 90 min
[1] = tested on: 1083 (donor line of iPSC-derived cardiomyocytes); experiment: POD (EC95) for loss of peak frequency (asystole) vs vehicle; higher = less potent (higher point of departure)
Procedure: (§1)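 Human iPSC-derived cardiomyocytes from 16 donors were exposed for 90 min at 37 °C to each PFAS at 0.1, 1, 10 and 100 µM in 0.5% DMSO, 384-well plates. Kinetic Ca2+ flux (FLIPR) and Hoechst nuclei counts were normalised to vehicle wells and fitted with a hierarchical Bayesian Hill model to give donor-specific PODs: EC05 for beat-rate increase or decrease and for decay-to-rise ratio increase (QT proxy), EC95 for peak-frequency loss (asystole), EC10 for total cell number loss. 0.03 µM is the lower bound.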

[2] = tested on: 11235 (donor line of iPSC-derived cardiomyocytes); experiment: as above
Procedure: as §1

[3] = tested on: 1368 (donor line of iPSC-derived cardiomyocytes); experiment: as above
Procedure: as §1

[4] = tested on: 20084 (donor line of iPSC-derived cardiomyocytes); experiment: as above
Procedure: as §1

[5] = tested on: 30171 (donor line of iPSC-derived cardiomyocytes); experiment: as above
Procedure: as §1

[6] = tested on: 1309 (donor line of iPSC-derived cardiomyocytes); experiment: as above
Procedure: as §1

[7] = tested on: 1118 (donor line of iPSC-derived cardiomyocytes); experiment: as above
Procedure: as §1

[8] = tested on: 1518 (donor line of iPSC-derived cardiomyocytes); experiment: as above
Procedure: as §1

[9] = tested on: 1531 (donor line of iPSC-derived cardiomyocytes); experiment: POD (EC10) for decrease in total cell number (cytotoxicity) vs vehicle; higher = less potent (higher point of departure)
Outline: (§2)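 In 384-well plates, cardiomyocytes made from iPSCs of 16 human donors were cultured for 14 days before a 90 min, 37 °C exposure to final concentrations of 0.1, 1, 10 and 100 µM with 0.5% DMSO. Per-field nuclear counts from MetaXpress, normalised to vehicle, were fitted with hierarchical Bayesian Hill models using a 10% decrease. These fits yielded a cytotoxicity point of departure for each donor.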

[10] = tested on: 1083; experiment: as above
Outline: as §2

[11] = tested on: 20032 (donor line of iPSC-derived cardiomyocytes); experiment: as above
Outline: as §2

[12] = tested on: 11235; experiment: as above
Outline: as §2

[13] = tested on: 1368; experiment: as above
Outline: as §2

[14] = tested on: 1434 (donor line of iPSC-derived cardiomyocytes); experiment: as above
Outline: as §2

[15] = tested on: 30171; experiment: as above
Outline: as §2

[16] = tested on: 1309; experiment: as above
Outline: as §2

[17] = tested on: 1118; experiment: as above
Outline: as §2

[18] = tested on: 1535 (donor line of iPSC-derived cardiomyocytes); experiment: as above
Outline: as §2

[19] = tested on: 1518; experiment: as above
Outline: as §2

[20] = tested on: 1565 (donor line of iPSC-derived cardiomyocytes); experiment: as above
Outline: as §2

Compound | POD vs vehicle [1] [µM] | POD vs vehicle [2] [µM] | POD vs vehicle [3] [µM] | POD vs vehicle [4] [µM] | POD vs vehicle [5] [µM] | POD vs vehicle [6] [µM] | POD vs vehicle [7] [µM] | POD vs vehicle [8] [µM] | POD vs vehicle [9] [µM] | POD vs vehicle [10] [µM] | POD vs vehicle [11] [µM] | POD vs vehicle [12] [µM] | POD vs vehicle [13] [µM] | POD vs vehicle [14] [µM] | POD vs vehicle [15] [µM] | POD vs vehicle [16] [µM] | POD vs vehicle [17] [µM] | POD vs vehicle [18] [µM] | POD vs vehicle [19] [µM] | POD vs vehicle [20] [µM]
O=C(O)C(F)(F)C(F)(F)F [Perfluoropropanoic_acid] | > 100 | > 100 | > 100 | > 100 | > 100 | > 100 | > 100 | > 100 | > 100 | > 100 | > 100 | > 100 | > 100 | > 100 | > 100 | > 100 | > 100 | > 100 | > 100 | > 100
NC(=O)C(F)(F)C(F)(F)C(F)(F)C(F)F | > 100 | > 100 | > 100 | > 100 | > 100 | > 100 | > 100 | > 100 | > 100 | > 100 | > 100 | > 100 | > 100 | > 100 | 0.93 | > 100 | > 100 | > 100 | > 100 | > 100
OCC(F)(F)C(F)(F)C(F)(F)CO [Hexafluoroamylene_glycol] | > 100 | > 100 | > 100 | > 100 | > 100 | > 100 | > 100 | > 100 | > 100 | > 100 | > 100 | > 100 | > 100 | > 100 | > 100 | > 100 | > 100 | > 100 | > 100 | > 100
O=C(O)C=C(C(F)(F)F)C(F)(F)F [3,3-Bis(trifluoromethyl)-2-propenoic_acid] | > 100 | > 100 | > 100 | > 100 | > 100 | > 100 | > 100 | > 100 | > 100 | > 100 | > 100 | > 100 | > 100 | > 100 | > 100 | > 100 | > 100 | > 100 | > 100 | > 100
O=C(O)C(F)(F)C(F)(F)C(F)(F)C(F)(F)C(F)(F)C(F)(F)C(F)(F)C(F)(F)F [Perfluorononanoic_acid] | > 100 | 31.5 | > 100 | > 100 | 82.8 | > 100 | 99.4 | > 100 | > 100 | > 100 | > 100 | > 100 | > 100 | > 100 | > 100 | > 100 | > 100 | > 100 | > 100 | > 100
O=C(O)C=CC(F)(C(F)(F)F)C(F)(F)F [3-(Perfluoroisopropyl)-2-propenoic_acid] | > 100 | > 100 | > 100 | > 100 | > 100 | > 100 | > 100 | > 100 | > 100 | > 100 | > 100 | > 100 | > 100 | > 100 | > 100 | > 100 | > 100 | > 100 | > 100 | > 100
OCC(F)(F)C(F)(F)C(F)(F)C(F)(F)C(F)(F)C(F)F [Dodecafluoroheptanol] | 38.1 | 48.1 | 35.7 | 48.6 | 51.8 | 50.3 | 7.54 | 38.1 | > 100 | > 100 | 58.4 | 85.3 | > 100 | > 100 | 46.4 | > 100 | 95.5 | > 100 | > 100 | > 100
O=S(=O)(O)CCC(F)(F)C(F)(F)C(F)(F)C(F)(F)C(F)(F)C(F)(F)F [6:2 Fluorotelomer sulfonic acid] | > 100 | > 100 | > 100 | > 100 | > 100 | > 100 | > 100 | > 100 | > 100 | > 100 | > 100 | > 100 | > 100 | > 100 | > 100 | > 100 | > 100 | > 100 | > 100 | > 100
OCCC(F)(F)C(F)(F)C(F)(F)C(F)(F)C(F)(F)C(F)(F)F [6:2 Fluorotelomer alcohol] | > 100 | > 100 | > 100 | > 100 | > 100 | > 100 | > 100 | > 100 | > 100 | > 100 | > 100 | > 100 | > 100 | > 100 | > 100 | > 100 | > 100 | > 100 | > 100 | > 100
O=S(=O)(O)C(F)(F)C(F)(F)C(F)(F)C(F)(F)C(F)(F)C(F)(F)F [Perfluorohexanesulfonic_acid] | > 100 | > 100 | > 100 | > 100 | > 100 | > 100 | > 100 | > 100 | > 100 | > 100 | > 100 | > 100 | > 100 | > 100 | > 100 | > 100 | > 100 | > 100 | > 100 | > 100
